Patent publication US20140030209A1, “TOPICAL LIQUID AGENT FOR THE TREATMENT OF DERMATOPHYTOSIS” (MEIJI SEIKA PHARMA CO., LTD., priority 2012, published 2014)

Experiments:
[1] = system: Trichophyton rubrum (T. rubrum) ATCC10218; test: Antifungal activity against dermatophytes (MIC, WST8); assay type: cell-based; settings: 80% growth inhibiting concentration; RPMI1640/MOPS, 28° C., 4 days, 1% DMSO
Experimental: (§1) Measurement of the antifungal activity against dermatophytes of the compound of the formula (I) contained in the topical liquid agent of the present invention was carried out by the following method. The compound to be evaluated was used by dissolving in dimethyl sulfoxide (DMSO). As a medium for the test, RPMI1640 medium containing 0.165M of 3-morpholinopropanesulfonic acid (MOPS) was used. As fungi to be tested, Trichophyton mentagrophytes (T. mentagrophytes) ATCC18748 or Trichophyton rubrum (T. rubrum) ATCC10218 was used. The testing fungal strain was apportioned to […] with a concentration of 1×10^4 conidia/ml, mixed with a compound to be evaluated on a 96-well half area plate so that the DMSO concentration became 1%, and cultured at a cultivation temperature of 28° C. for 3 days (T. mentagrophytes) or 4 days (T. rubrum). Thereafter, 5 μl of Cell Counting Kit 8 (WST8) was added thereto, and absorbances at 450 nm and 595 nm were measured to use these as background values. Thereafter, these were cultivated at 28° C. for 5 hours (T. mentagrophytes) or overnight (T. rubrum) to cause a color, and absorbances at 450 nm and 595 nm were measured again. A growth inhibiting rate was calculated from the difference to the background values, and a 80% growth inhibiting concentration was made an MIC value […].

[2] = system: Trichophyton mentagrophytes (T. mentagrophytes) ATCC18748; test: as above; assay type: cell-based; settings: 80% growth inhibiting concentration; RPMI1640/MOPS, 28° C., 3 days, 1% DMSO
Experimental: as §1

Row | Structure (SMILES) | MIC (T. rubrum) [1] | MIC (T. mentagrophytes) [2]
1 | Cc1cc(C)n(-c2ccccc2O)n1 [compound 1] | B (4 to 16 μg/ml) | 
2 | Cc1cc(C(F)(F)F)nn1-c1ccccc1O [compound 5] | D (>32 to 64 μg/ml) | 
3 | Cc1nn(-c2ccccc2O)c(C)c1C [compound 9] | A (≦2 μg/ml) | A (≦1 μg/ml)
4 | Cc1cc(C)n(-c2cc(Cl)ccc2O)n1 [compound 11] | D (>32 to 64 μg/ml) | 
5 | Cc1nn(-c2ccccc2O)c(C)c1Cl [compound 13] | B (4 to 16 μg/ml) | A (≦1 μg/ml)
6 | CCc1cc(CC)n(-c2ccccc2O)n1 [compound 14] | B (4 to 16 μg/ml) | 
7 | Cc1cc(C)n(-c2cccc(O)c2O)n1 [compound 15] | C (16 to 32 μg/ml) | 
8 | CCc1c(C)nn(-c2ccccc2O)c1C [compound 17] | A (≦2 μg/ml) | A (≦1 μg/ml)
9 | Cc1nn(-c2ccc(F)cc2O)c(C)c1C [compound 18] | B (4 to 16 μg/ml) | 
10 | Cc1nn(-c2cc(O)ccc2O)c(C)c1Cl [compound 19] | C (16 to 32 μg/ml) | 
11 | Cc1nn(-c2cc(F)ccc2O)c(C)c1C [compound 20] | D (>32 to 64 μg/ml) | 
12 | Cc1nn(-c2ccc(F)cc2O)c(C)c1Cl [compound 21] | B (4 to 16 μg/ml) | A (≦1 μg/ml)
13 | CCOC(=O)c1c(C)nn(-c2ccccc2O)c1C [compound 22] | D (>32 to 64 μg/ml) | 
14 | COC(=O)CCc1c(C)nn(-c2ccccc2O)c1C [compound 23] | D (>32 to 64 μg/ml) | 
15 | CCCCc1c(C)nn(-c2ccccc2O)c1C [compound 24] | C (16 to 32 μg/ml) | A (≦1 μg/ml)
16 | Cc1cc(C)n(-c2ccc(F)cc2O)n1 [compound 25] | B (4 to 16 μg/ml) | 
17 | Cc1cc(C)n(-c2ccc(Cl)cc2O)n1 [compound 26] | A (≦2 μg/ml) | A (≦1 μg/ml)
18 | Cc1cc(C)n(-c2ccc([N+](=O)[O-])cc2O)n1 [compound 28] | C (16 to 32 μg/ml) | 
19 | Cc1nn(-c2ccc(Cl)cc2O)c(C)c1C [compound 30] | A (≦2 μg/ml) | A (≦1 μg/ml)
20 | Cc1cc(C)n(-c2ccc(N)cc2O)n1 [compound 31] | B (4 to 16 μg/ml) | 
21 | Cc1nn(-c2ccc([N+](=O)[O-])cc2O)c(C)c1C [compound 32] | B (4 to 16 μg/ml) | 
22 | Cc1cc(C)n(-c2ccc(O)cc2O)n1 [compound 33] | A (≦2 μg/ml) | 
23 | Cc1nn(-c2ccc(N)cc2O)c(C)c1C [compound 34] | B (4 to 16 μg/ml) | 
24 | COC(=O)c1ccc(-n2nc(C)cc2C)c(O)c1 [compound 35] | C (16 to 32 μg/ml) | 
25 | Cc1cc(C)n(-c2c(N)cccc2O)n1 [compound 36] | D (>32 to 64 μg/ml) | 

Row | Structure (SMILES) | MIC (T. rubrum) [1] | MIC (T. mentagrophytes) [2]
26 | Cc1cc(C)n(-c2ccc(C(=O)O)cc2O)n1 [compound 37] | B (4 to 16 μg/ml) | 
27 | Cc1cc(C)n(-c2ccc(C(=O)N(C)C)cc2O)n1 [compound 38] | B (4 to 16 μg/ml) | 
28 | Cc1cc(C)n(-c2ccc(C(N)=O)cc2O)n1 [compound 39] | C (16 to 32 μg/ml) | 
29 | Cc1nn(-c2ccc(C(=O)O)cc2O)c(C)c1C [compound 40] | D (>32 to 64 μg/ml) | 
30 | Cc1nn(-c2ccc(C(N)=O)cc2O)c(C)c1C [compound 41] | D (>32 to 64 μg/ml) | 
31 | Cc1nn(-c2ccc(C(N)=O)cc2O)c(C)c1Cl [compound 42] | D (>32 to 64 μg/ml) | 
32 | Cc1cc(C)n(-c2c(O)cccc2O)n1 [compound 43] | D (>32 to 64 μg/ml) | 
33 | Cc1ccc(-n2nc(C)cc2C)c(O)c1 [compound 44] | A (≦2 μg/ml) | A (≦1 μg/ml)
34 | COc1ccc(-n2nc(C)cc2C)c(O)c1 [compound 45] | A (≦2 μg/ml) | A (≦1 μg/ml)
35 | Cc1cc(C)n(-c2c(C)cccc2O)n1 [compound 46] | D (>32 to 64 μg/ml) | 
36 | Cc1cc(C)n(-c2ccc(CO)cc2O)n1 [compound 47] | B (4 to 16 μg/ml) | 
37 | CNc1ccc(-n2nc(C)cc2C)c(O)c1 [compound 48] | B (4 to 16 μg/ml) | 
38 | Cc1ccc(O)c(-n2nc(C)cc2C)c1 [compound 49] | D (>32 to 64 μg/ml) | 
39 | Cc1cc(C)n(-c2ccc(C(F)(F)F)cc2O)n1 [compound 50] | B (4 to 16 μg/ml) | 
40 | Cc1cc(C)n(-c2cccc(C)c2O)n1 [compound 51] | D (>32 to 64 μg/ml) | 
41 | CCc1ccc(-n2nc(C)cc2C)c(O)c1 [compound 52] | A (≦2 μg/ml) | A (≦1 μg/ml)
42 | Cc1nn(-c2ccccc2O)c(C)c1F [compound 53] | B (4 to 16 μg/ml) | 
43 | Cc1cc(C)n(-c2ccc(Br)cc2O)n1 [compound 54] | A (≦2 μg/ml) | A (≦1 μg/ml)
44 | Cc1nn(-c2ccc(Br)cc2O)c(C)c1Cl [compound 55] | A (≦2 μg/ml) | A (≦1 μg/ml)
45 | Cc1nn(-c2ccc(Br)cc2O)c(C)c1C [compound 56] | A (≦2 μg/ml) | A (≦1 μg/ml)
46 | CC(=O)Oc1ccc(-n2nc(C)cc2C)c(O)c1 [compound 57] | B (4 to 16 μg/ml) | 
47 | CC(=O)Oc1ccc(-n2nc(C)c(Cl)c2C)c(O)c1 [compound 58] | A (≦2 μg/ml) | 
48 | CC(=O)Oc1ccc(-n2nc(C)c(C)c2C)c(O)c1 [compound 59] | B (4 to 16 μg/ml) | 
49 | Cc1nn(-c2ccc(O)cc2O)c(C)c1Cl [compound 63] | A (≦2 μg/ml) | A (≦1 μg/ml)
